US8071654B2, “Inhibitors of thromboxane formation and action” (priority 2000, dated 2011)

How the values were obtained:
TX synthase = molecular target: T1, TX synthase (Homo sapiens, UniProt P24557); test: collagen-evoked TxB2 (and HHT) formation in washed human platelets, HPLC; assay type: cell-based; details: for TX enzyme activity (% of control values, mean ± SD): n = 3, TxB2 and HHT
T1 construct: endogenous in cells; host or cells: washed human platelets
T1 sequence (P24557 1-533): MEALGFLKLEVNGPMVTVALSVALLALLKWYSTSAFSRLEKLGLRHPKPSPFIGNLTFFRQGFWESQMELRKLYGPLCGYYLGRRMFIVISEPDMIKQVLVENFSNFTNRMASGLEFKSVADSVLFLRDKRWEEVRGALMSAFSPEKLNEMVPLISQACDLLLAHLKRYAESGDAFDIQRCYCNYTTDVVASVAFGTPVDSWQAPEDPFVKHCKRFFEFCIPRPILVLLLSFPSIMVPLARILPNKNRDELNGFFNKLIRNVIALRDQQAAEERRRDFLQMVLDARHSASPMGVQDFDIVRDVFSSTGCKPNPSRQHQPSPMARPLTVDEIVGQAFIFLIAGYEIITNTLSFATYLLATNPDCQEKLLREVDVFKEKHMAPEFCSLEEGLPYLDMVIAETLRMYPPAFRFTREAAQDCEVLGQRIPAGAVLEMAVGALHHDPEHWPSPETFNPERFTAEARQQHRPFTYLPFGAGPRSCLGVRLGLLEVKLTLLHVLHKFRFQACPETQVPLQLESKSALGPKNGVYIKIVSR
Protocol: (§1) 0.5 ml of platelet suspension was added to siliconized glass tubes (four at a time) and heated with magnetic stirring to 37° for 1 min in a platelet aggregometer (PAP-4C). Either vehicle alone (ethanol, 1 μl) or hepoxilin analog was then added, followed two min later by agonist (collagen: 2 μg; PGH2: 100 ng/0.5 ml; U46619: 10 ng/0.5 ml or I-BOP: 2 ng/0.5 ml). The response was recorded for the next 5 min. In experiments where analysis of TxB2 and HHT were to be made by HPLC, the platelet suspension at the end of the experiment was diluted with ethyl acetate, 100 ng of prostaglandin B1 was added as internal standard, and the mixture was acidified to pH 3 with 0.1 N HCl. After centrifugation, the organic layer was separated, washed twice with water to neutrality, and evaporated to dryness. Half of the sample was taken and was resuspended in 1 ml ethyl acetate containing 20 μg ADAM reagent, and was left in the dark for 2 h (38). The solvent was then evaporated and the residue was acetylated with a solution of pyridine/acetic anhydride (3/1, v/v) during 16 h at 23°. The reagents were evaporated to dryness and the residue was resuspended in acetonitrile/water for HPLC analysis. In experiments where the conversion of tritiated PGH2 was to be monitored, the procedure described above was repeated with tritiated PGH2 instead of unlabeled PGH2. After extraction of the sample as described above, the radiolabeled compounds were analyzed by TLC. Dose response curves for varying amounts of test compounds were generated and the data expressed as % inhibition of collagen-induced platelet aggregation. Each point was investigated 5 times and statistical analysis of the data was carried out using Macintosh Statview statistical software.
Measurement of eicosanoids formed by platelets during treatment with collagen or the TP receptor agonists in the presence or absence of PBT-3 was carried out by HPLC after appropriate derivatization with a fluorescent tag (anthracyl diazomethane—ADAM) which forms a fluorescent ester (44). The method was adapted to measure the following compounds: TxB2, HHT, 12-HETE and M. The platelet suspension at the end of the experiment was mixed with ethyl acetate, 100 ng of prostaglandin B1 was added as internal standard and the mixture was acidified to pH 3 with 0.1 N HCl. After centrifugation, the organic layer was separated, washed twice with water to neutrality, and evaporated to dryness. The residue was resuspended in ethyl acetate and half of the sample was taken. It was diluted to 0.2 ml with ethyl acetate containing 20 μg ADAM reagent, and was left in the dark for 2 h. The solvent was then evaporated and the residue was acetylated with a solution of pyridine/acetic anhydride (3/1, v/v) for 16 h at 23°. The reagents were evaporated to dryness and the residue was resuspended in acetonitrile/water for HPLC analysis. Dose response curves for varying amounts of test compounds were generated and the data were expressed as % inhibition of agonist-induced platelet aggregation. Each point was investigated 3 times and statistical analysis of the data was carried out using Macintosh Statview statistical software.
Analysis of the anthryl (ADAM)-acetate derivative of TxB2, HHT and 12 HETE in the extracted platelet samples was carried out on a Hewlett Packard (1100 series) HPLC to which was attached a Shimadzu fluorescent detector (RF-10AXL). The detector was operated with excitation at 364 nm, emission at 411 nm. Chromatographic separation of the compound was carried out on a Waters C18 Novapak column (3.9×300 mm) using acetonitrile/water 80/20 at injection with a linear gradient to 100% acetonitrile during 20 min. TLC separation of tritiated platelet extracts was carried out on 20 cm silica gel G glass plates (Brinkman), with chloroform/methanol/acetic acid/water (90/9/1/0.65, v/v) as developing solvent in a paper lined glass tank at 23°. […]

TxB2 formation = test: metabolism of [3H]-PGH2 to TxB2 by human platelets, TLC; assay type: cell-based; details: two doses of PBT-3, TLC profile
Protocol: as §1, with “The solvent was then evaporated and the residue was acetylated with a solution of pyridine/acetic anhydride (3/1, v/v) during 16 h at 23°. The reagents were evaporated to dryness and the residue was resuspended in acetonitrile/water for HPLC analysis.” left out, “Each point was investigated 5 times and statistical analysis of the data was carried out using Macintosh Statview statistical software.” left out

## CCCCC/C=C\CC1CC1[C@@H](O)/C=C\C/C=C\CCCC(=O)OC (stereo partly drawn) [PBT-3, 10(S)-hydroxy-11,12-cyclopropyl-eicosa-5Z,8Z,14Z-trienoic acid methyl ester]
TX synthase; PBT-3 0.05 μM
  TX enzyme activity (% of control values, mean ± SD): 94.2 ± 15.2^NS % of control
TX synthase; PBT-3 0.30 μM
  TX enzyme activity (% of control values, mean ± SD): 65.7 ± 6.0 % of control
TX synthase; PBT-3 0.60 μM
  TX enzyme activity (% of control values, mean ± SD): 41.0 ± 4.7 % of control
TX synthase; PBT-3 3.00 μM
  TX enzyme activity (% of control values, mean ± SD): 29.9 ± 6.7 % of control
TX synthase; Table 1, last column
  inhibition of TxB2 formation in platelets, in words: significantly inhibited
TX synthase; washed human platelets, read-out: IC50 for block of collagen-evoked formation of thromboxane
  IC50: 800 nM
TxB2 formation
  inhibition of formation of tritiated TxB2 from [3H]-PGH2: inhibitory action
